Assay results taken from publication PMC4563558, “Discovery of a series of novel phenylpiperazine derivatives as EGFR TK inhibitors” (Scientific Reports, 2015).

Key:
MCF-7 = experiment: MTT antiproliferation assay, MCF-7; format: cell-based; details: Homo sapiens, MCF7, 72 h exposure, read-out: IC50 ± SD, MCF-7
Procedure: (§1) To test the antiproliferative activities of the synthesized compounds (see supplementary Scheme S1 and S2), the target compounds were evaluated in vitro antiproliferation assays against three human cancer cell lines (MCF-7, HeLa and A549) and one human normal lung cell line.
(§2) The in vitro anticancer activities of the prepared compounds against MCF-7, HeLa and A549 cell lines were evaluated as described in the literature[23] with some modifications. Target tumor cells were grown to log phase in DMEM medium supplemented with 10% fetal bovine serum. After reaching a dilution of 1 × 10^5 cells mL^−1 with the medium, 100 μL of the obtained cell suspension was added to each well of 96-well culture plates. Subsequently, incubation was performed at 37 °C in 5% CO2 atmosphere for 48 h before the cytotoxicity assessment. Tested samples at preset concentrations were added to 6 wells with Erlotinib being employed as a positive reference. After 72 h exposure period, 25 μL of PBS containing 2.5 mg mL^−1 of MTT was added to each well. After 4 h, the medium was replaced by 150 μL DMSO to dissolve the purple formazan crystals produced. The absorbance at 570 nm of each well was measured with an ELISA plate reader. The data represented the mean of three independent experiments in triplicate and were expressed as means ± SD. The IC50 value was defined as the concentration at which 50% of the cells could survive.

HeLa = experiment: MTT antiproliferation assay, HeLa; format: cell-based; details: Homo sapiens, 72 h exposure, read-out: IC50 ± SD, HeLa
Procedure: as §1, §2

A549 = experiment: MTT antiproliferation assay, A549; format: cell-based; details: Homo sapiens, 72 h exposure, read-out: IC50 ± SD, A549
Procedure: as §1, §2

Lung cells = experiment: MTT assay, human normal lung cell line; format: cell-based; details: read-out: IC50 ± SD, Lung cells
Procedure: as §1, §2

EGFR = target: T1, EGFR (Homo sapiens, UniProt P00533); experiment: Kinase selectivity assay (kit), EGFR; format: biochemical; details: read-out: Inhibition of EGFR IC50
T1 construct: purchased Bio-Swamp
Procedure: (§3) The EGFR, VEGFR2, bFGF and PDGFR Kinase Assay Kit were purchased from Bio-Swamp. The experiments were performed according to the manufacturer’s instructions.

VEGFR2 = target: T2, VEGFR2 (Homo sapiens, UniProt P35968); experiment: Kinase selectivity assay (kit), VEGFR2; format: biochemical; details: read-out: Inhibition of VEGFR2 IC50
T2 construct: purchased Bio-Swamp
Procedure: (§4) To validate whether the above anti-proliferative effect was produced by interaction of EGFR protein and the synthesized compounds, the synthesized compounds were evaluated for their abilities to inhibit the activity of four protein kinases relevant to cancer: EGFR, VEGFR2, bFGF, PDGFR. […] Additionally, the activity data inferred that the IC50 values of these compounds shared a similar tendency with their relevant IC50 values of anti-proliferative assay. […] Therefore, we could conclude that the synthesized inhibitors can inhibit the function of EGFR and the anti-proliferative effect was produced partly by interaction of EGFR protein and the compounds.
as §3

bFGF = experiment: Kinase selectivity assay (kit), bFGF; format: biochemical; details: read-out: Inhibition of bFGF IC50
Procedure: as §4, §3

PDGFR = experiment: Kinase selectivity assay (kit), PDGFR; format: biochemical; details: read-out: Inhibition of PDGFR IC50
Procedure: as §4, §3

Erythrocytes = experiment: Hemolysis test; format: cell-based; details: human erythrocytes, 3 h incubation
Procedure: Hemolytic activity was assayed using fresh capillary human blood. Erythrocytes were collected by centrifuging the blood three times in chilled phosphate buffered saline (PBS at 4 °C) at 1000 × g for 10 min. The final pellet was resuspended in PBS to give a 2% w/v solution. Using a microtitre plate, 100 μL of the erythrocyte solution was added to dextran, PLL, stearyl-PLL or stearyl-PLL+LDL (1–1000/μg/mL) in a volume of […]. Samples were then incubated for 3 h and the microtitre plate was centrifuged then at 1000 × g for 10 min and the supernatants (100 μL) transferred into a new microtitre plate. Hemoglobin release was determined spectrophotometrically using a microtitre plate reader (absorbance at 550 nm). Results were expressed as the amount of released hemoglobin induced by the compounds as a percentage of the total. Hemolysis test was tested according to the guide of biological evaluation of medical device (SFDA, China).

in vitro = format: cell-based; details: mouse
Procedure: The cytotoxic activity in vitro was measured against mouse fibroblast NIH-3T3 cells using the MTT assay. Cells were cultured in a 96-well plate at a density of 5 × 10^5 cells and different concentrations of compounds were respectively added to each well. The incubation was permitted at 37 °C, 5% CO2 atmosphere for 24 h before the cytotoxicity assessments. 20 μL MTT reagent (4 mg/mL) was added per well 4 h before the end of the incubation. Four hours later, the plate was centrifuged at 1200 rcf for 5 min and the supernatants were removed, each well was added with 200 μL DMSO. The absorbance was measured at a wavelength of 490 nm (OD 490 nm) on an ELISA microplate reader. Three replicate wells were used for each concentration and each assay was measured three times, after which the average of IC50 was calculated.

[1] = Acute oral toxicity, bodyweights; format: in vivo; details: mice; for Bodyweights 0 day ± SD: day 0; for Bodyweights 7 days ± SD: day 7
Procedure: Before the acute toxicity experiment, mice were stopped being served food but water was kept for 3 h. The test substances were dissolved in maize germ oil[24]. The preliminary experiment was performed as follows: Four dose levels, 100, 500, 2000, and 5000 mg/kg body weight and three mice for each level were used. We observed the death and evident toxicity in 7 days to determine the general concentration range. Then the administration doses were graded with geometric progression for ease of the calculation of LD50. Mice were randomly divided into groups (10 mice/group). […] The control groups received maize germ oil only. After the administration, food was withheld for 2 h.

[2] = system: MCF-7, HeLa and A549 cell lines; experiment: Anticancer activities discussed in text (cell line not specified); format: cell-based, human; details: comparison within series and with positive control
Procedure: According to the data presented in Table 1, it could be concluded that the activity of the tested compounds may be correlated to the variation and modifications of structure.
as §2

A549 cells = experiment: Tumor volume in nude mice inoculated with A549 cells; format: in vivo; details: 20 mg/kg/2 days, day 14
Procedure: To further evaluate the antitumor effect of compound 3p in vivo, we performed an animal study. Mice were inoculated subcutaneously with A549 cells (5.0 × 10^6) on their shoulders. […]. […] […].
Male BALB/c nude mice, 35–40 days old and weighing 18–22 g, were supplied by Shanghai Laboratory Animal Limited Company. The mice were raised in air-conditioned rooms under controlled lighting (12 h lighting/day) and were fed with standard laboratory food and water ad libitum. Before injection into the mice, the lung cancer cells (A549) were harvested by trypsinization and washed three times with cold serum-free medium and then injected in a total volume of 0.1 mL using a 1-mL latex-free syringe (BD) within 30 min of harvest. Mice were inoculated subcutaneously with A549 cells (5.0 × 10^6) on their shoulders. When the tumor had increased to 100 mm^3 , the mice were equally randomized into 4 groups (with 6 mice/group): saline tumor control group; compound 3p 20 mg/kg/2 days group; compound 3p 40 mg/kg/2 days group; […]. The control group received 0.9% normal saline. Tumor size was measured once every 2 days in two per-pendicular dimensions with Vernier calipers and converted to tumor volume (TV) using the formula: (ab^2)/2, where a and b refer to the longer and shorter dimensions, respectively. The body weight of the animals was measured twice a week at the same time as the tumor dimension measurement and the mortality was monitored daily. After the treatments, all mice were killed and weighed simultaneously, and then tumor was segregated and weighed.

T2 sequence (P35968 20-1356, species assumed): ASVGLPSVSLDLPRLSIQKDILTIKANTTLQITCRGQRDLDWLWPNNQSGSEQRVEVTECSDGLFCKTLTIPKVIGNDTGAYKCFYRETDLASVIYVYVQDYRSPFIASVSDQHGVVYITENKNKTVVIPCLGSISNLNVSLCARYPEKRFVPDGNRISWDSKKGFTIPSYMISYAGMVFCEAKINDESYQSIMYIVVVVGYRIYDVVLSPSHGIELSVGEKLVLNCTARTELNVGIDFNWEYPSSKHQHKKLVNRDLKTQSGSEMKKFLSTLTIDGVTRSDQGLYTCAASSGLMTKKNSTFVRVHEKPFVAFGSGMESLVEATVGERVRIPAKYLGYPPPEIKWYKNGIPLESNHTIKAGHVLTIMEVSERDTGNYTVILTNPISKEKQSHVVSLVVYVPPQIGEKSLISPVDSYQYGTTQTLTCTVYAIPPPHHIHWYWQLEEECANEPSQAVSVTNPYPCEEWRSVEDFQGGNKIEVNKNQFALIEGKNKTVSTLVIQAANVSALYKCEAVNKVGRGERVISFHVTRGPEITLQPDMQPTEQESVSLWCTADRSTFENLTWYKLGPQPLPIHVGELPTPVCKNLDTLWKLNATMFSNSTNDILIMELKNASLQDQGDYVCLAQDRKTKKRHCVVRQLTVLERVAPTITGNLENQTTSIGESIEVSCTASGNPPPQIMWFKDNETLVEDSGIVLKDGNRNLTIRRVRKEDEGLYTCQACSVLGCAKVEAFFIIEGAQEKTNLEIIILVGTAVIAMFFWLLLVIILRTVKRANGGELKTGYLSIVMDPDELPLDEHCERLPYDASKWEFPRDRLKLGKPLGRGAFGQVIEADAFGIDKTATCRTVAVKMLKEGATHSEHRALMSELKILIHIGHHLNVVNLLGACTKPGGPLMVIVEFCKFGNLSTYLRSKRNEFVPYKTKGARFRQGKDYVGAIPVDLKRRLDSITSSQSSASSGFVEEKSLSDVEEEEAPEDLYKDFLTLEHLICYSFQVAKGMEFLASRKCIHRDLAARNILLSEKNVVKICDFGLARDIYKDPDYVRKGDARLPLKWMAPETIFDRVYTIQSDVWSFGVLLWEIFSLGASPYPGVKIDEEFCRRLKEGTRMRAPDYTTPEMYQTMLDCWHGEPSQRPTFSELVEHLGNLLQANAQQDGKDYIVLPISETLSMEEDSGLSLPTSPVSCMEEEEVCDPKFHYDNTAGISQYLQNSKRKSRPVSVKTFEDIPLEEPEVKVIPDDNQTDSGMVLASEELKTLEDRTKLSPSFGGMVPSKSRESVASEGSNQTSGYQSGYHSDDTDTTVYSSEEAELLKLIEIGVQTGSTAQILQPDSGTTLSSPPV
T1 sequence (P00533 25-1210): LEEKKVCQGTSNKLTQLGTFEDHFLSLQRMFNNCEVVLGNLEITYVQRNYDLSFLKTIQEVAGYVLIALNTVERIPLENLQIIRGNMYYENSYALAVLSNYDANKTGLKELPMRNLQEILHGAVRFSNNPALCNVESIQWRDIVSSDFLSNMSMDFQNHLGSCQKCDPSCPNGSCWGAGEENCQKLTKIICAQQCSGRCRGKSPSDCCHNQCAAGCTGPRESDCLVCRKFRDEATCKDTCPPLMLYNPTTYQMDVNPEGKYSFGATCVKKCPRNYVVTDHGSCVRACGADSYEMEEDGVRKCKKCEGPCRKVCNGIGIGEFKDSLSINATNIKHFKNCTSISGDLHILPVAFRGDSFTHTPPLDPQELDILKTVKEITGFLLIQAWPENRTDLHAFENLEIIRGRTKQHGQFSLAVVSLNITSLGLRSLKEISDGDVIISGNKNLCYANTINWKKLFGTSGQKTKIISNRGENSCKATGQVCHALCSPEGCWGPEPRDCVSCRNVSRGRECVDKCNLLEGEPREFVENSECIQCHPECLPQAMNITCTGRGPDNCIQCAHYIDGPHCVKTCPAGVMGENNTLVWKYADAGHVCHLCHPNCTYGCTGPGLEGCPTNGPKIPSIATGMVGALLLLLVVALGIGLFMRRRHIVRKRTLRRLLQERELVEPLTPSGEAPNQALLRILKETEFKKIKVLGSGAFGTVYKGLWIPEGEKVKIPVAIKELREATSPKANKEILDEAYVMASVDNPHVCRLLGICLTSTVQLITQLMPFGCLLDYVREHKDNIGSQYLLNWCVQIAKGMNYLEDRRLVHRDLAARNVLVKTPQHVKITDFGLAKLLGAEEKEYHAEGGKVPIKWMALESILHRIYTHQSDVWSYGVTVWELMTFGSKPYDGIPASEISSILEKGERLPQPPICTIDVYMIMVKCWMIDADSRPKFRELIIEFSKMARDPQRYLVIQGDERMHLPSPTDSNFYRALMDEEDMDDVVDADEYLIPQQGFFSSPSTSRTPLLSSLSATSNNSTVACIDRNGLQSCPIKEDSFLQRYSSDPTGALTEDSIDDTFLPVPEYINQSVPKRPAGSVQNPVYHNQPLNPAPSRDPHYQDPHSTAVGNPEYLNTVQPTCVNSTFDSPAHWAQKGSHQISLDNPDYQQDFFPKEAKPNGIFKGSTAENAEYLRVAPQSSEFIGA

Compound	IC50 (MCF-7)	IC50 (HeLa)	IC50 (A549)	IC50 (Lung cells)	IC50 (EGFR)	IC50 (VEGFR2)	IC50 (bFGF)	IC50 (PDGFR)	Hemolysis LC30 (lytic concentration 30%) (Erythrocytes)	IC50 at 24 h (in vitro)	Bodyweights 0 day ± SD [1]	Bodyweights 7 days ± SD [1]	Anticancer / antitumor activity (in words) [2]	Reduction of the growth of tumors (A549 cells)
COc1cc(OC)nc(NC(=O)CN2CCN(c3ccccc3F)CC2)n1 [3c, N-(4,6-Dimethoxypyrimidin-2-yl)-2-(4-(2-fluorophenyl)piperazin-1-yl)acetamide]	4.13 ± 0.01 µM	2.69 ± 0.1 µM	0.55 ± 0.02 µM	178 ± 2.02 µM	1.35 ± 0.006 µM	8.94 ± 0.73 µM	25.4 ± 2.34 µM	33.8 ± 1.94 µM	>10000 µg/mL	230 ± 3.15 µM	21.09 ± 1.16 g	26.09 ± 0.93 g		
COc1cc(OC)nc(NC(=O)CN2CCN(c3ccccc3)CC2)n1 [3d, N-(4,6-Dimethoxypyrimidin-2-yl)-2-(4-phenylpiperazin-1-yl)acetamide]	9.87 ± 1 µM	10.2 ± 0.28 µM	2.17 ± 0.02 µM	136 ± 3.15 µM	5.11 ± 0.03 µM	10.1 ± 1.08 µM	18.5 ± 2.11 µM	8.5 ± 0.09 µM	>10000 µg/mL	150 ± 2.56 µM	21.18 ± 2.15 g	25.57 ± 1.56 g	worst anticancer activity	
COc1cc(OC)nc(NC(=O)CN2CCN(c3ccccc3OC)CC2)n1 [3e, N-(4,6-Dimethoxypyrimidin-2-yl)-2-(4-(2-methoxyphenyl)piperazin-1-yl)acetamide]	2.57 ± 0.02 µM	1.55 ± 0.006 µM	1.97 ± 0.001 µM	189.3 ± 1.78 µM	1.01 ± 0.004 µM	5.33 ± 0.05 µM	11.5 ± 0.89 µM	10 ± 1.17 µM	>10000 µg/mL	173 ± 5.31 µM	21.11 ± 1.34 g	25.34 ± 1.15 g	better anticancer activities compared to the positive control	
N.N.[Cl][Pt][Cl] [DDCP, reference compound]									>10000 µg/mL					
COc1cc(OC)nc(NC(=O)CN2CCN(c3ccccn3)CC2)n1 [3m, N-(4,6-Dimethoxypyrimidin-2-yl)-2-(4-(pyridin-2-yl)piperazin-1-yl)acetamide]	2.87 ± 0.004 µM	5.11 ± 0.006 µM	1.55 ± 0.004 µM	165.8 ± 0.59 µM	2.55 ± 0.67 µM	7.23 ± 0.78 µM	3.8 ± 0.036 µM	50 ± 4.76 µM	>10000 µg/mL	182 ± 3.22 µM	22.43 ± 1.02 g	22.09 ± 1.02 g		
COc1cc(OC)nc(NC(=O)CN2CCN(c3cccc(C(F)(F)F)c3)CC2)n1 [3r, N-(4,6-Dimethoxypyrimidin-2-yl)-2-(4-(3-(trifluoromethyl)phenyl)piperazin-1-yl)acetamide]	4.97 ± 0.01 µM	4.02 ± 0.01 µM	0.33 ± 0.07 µM	150 ± 3.03 µM	1.96 ± 0.006 µM	6.95 ± 0.68 µM	33.9 ± 3.59 µM	3.87 ± 0.92 µM	>10000 µg/mL	185 ± 2.16 µM	21.00 ± 1.01 g	25.07 ± 1.21 g		
COc1ccc(N2CCN(CC(=O)Nc3nc(OC)cc(OC)n3)CC2)cc1 [3i, N-(4,6-Dimethoxypyrimidin-2-yl)-2-(4-(4-methoxyphenyl)piperazin-1-yl)acetamide]	2.98 ± 0.09 µM	0.9 ± 0.07 µM	2.22 ± 0.05 µM	197.5 ± 1.74 µM	0.91 ± 0.006 µM	3.99 ± 0.08 µM	22.35 ± 0.1 µM	31.8 ± 3.12 µM	>10000 µg/mL	198.5 ± 1.13 µM	21.33 ± 0.67 g	25.83 ± 1.30 g	better anticancer activities compared to the positive control	
COc1cc(OC)nc(NC(=O)CN2CCN(c3ccc([N+](=O)[O-])cc3)CC2)n1 [3f, N-(4,6-Dimethoxypyrimidin-2-yl)-2-(4-(4-nitrophenyl)piperazin-1-yl)acetamide]	2.09 ± 0.01 µM	4.99 ± 0.07 µM	0.08 ± 0.003 µM	202 ± 4.05 µM	2.12 ± 0.08 µM	7.67 ± 0.07 µM	21.5 ± 0.69 µM	24.5 ± 2.56 µM	>10000 µg/mL	155 ± 3.05 µM	20.57 ± 1.43 g	27.25 ± 1.50 g		
C#Cc1cccc(Nc2ncnc3cc(OCCOC)c(OCCOC)cc23)c1 [Erlotinib, reference compound]	0.15 ± 0.03 µM	0.11 ± 0.01 µM	0.1 ± 0.0004 µM	195.2 ± 1.27 µM										49.09%
